Test results as given in the NIST ThermoML archive (doi:10.1021/je501033z).
Several values for one entry are separate records, joined by “and”; a condition that tells them apart may be missing. Equal values may be shown once.

Details: Liquid, Closed cell (Static) method

CO [methanol]
Details | vapor or sublimation pressure [kPa]
274.15 K | 4.252
278.15 K | 5.501
283.15 K | 7.411
293.15 K | 13
303.15 K | 21.86
313.15 K | 35.43
323.15 K | 55.54
333.15 K | 84.93
343.15 K | 125.74
353.15 K | 181.56
363.15 K | 256.27
373.15 K | 354.35
383.15 K | 480.82
393.15 K | 641.27
403.15 K | 841.83
413.15 K | 1089.2

O [water]
Details | vapor or sublimation pressure
279.48 K | 0.953 kPa
286.16 K | 1.508 kPa
291.39 K | 2.094 kPa
293.14 K | 2.337 kPa
296.31 K | 2.839 kPa
296.32 K | 2.834 kPa
298.81 K | 3.288 kPa
301.37 K | 3.827 kPa
303.57 K | 4.36 kPa
307.73 K | 5.507 kPa
308.26 K | 5.666 kPa
312.87 K | 7.275 kPa
313.07 K | 7.345 kPa
314.62 K | 7.977 kPa
318.13 K | 9.585 kPa and 9.578 kPa
322.99 K | 12.26 kPa
323.1 K | 12.32 kPa
323.17 K | 12.36 kPa
328.14 K | 15.75 kPa
328.88 K | 16.31 kPa
